Reference: ChEMBL document CHEMBL5120961, “N-Arylimidazoliums as Highly Selective Biomimetic Antimicrobial Agents” (J Med Chem, 2022)
Values after ≈ are worked out from the molar mass of the structure shown. Active and inactive are the calls of the source. No cut-off for these calls is given here. Bridge positions count the residues as written; N and C are the ends. Square brackets hold non-standard residues; d marks the D form. Peptide text beside a SMILES is read from it. * marks the point of attachment. X1 = CC[C@H](C)CCCCC(=O)*; Dab = NCC[C@H](N)C(=O)O

Columns and labels:
Staphylococcus aureus [1] = experiment: Antibacterial activity against methicillin-resistant Staphylococcus aureus ATCC 43300 assessed as inhibition of bacterial growth incubated for 16 to 18 hrs by broth microdilution method; assay type: functional; conditions: time 16-18 hrs
Staphylococcus aureus [2] = experiment: Antibacterial activity against Staphylococcus aureus ATCC 25923 assessed as inhibition of bacterial growth incubated for 16 to 18 hrs by broth microdilution method; assay type: functional; conditions: time 16-18 hrs
Escherichia coli = experiment: Antibacterial activity against Escherichia coli ATCC 25922 assessed as inhibition of bacterial growth incubated for 16 to 18 hrs by broth microdilution method; assay type: functional; conditions: time 16-18 hrs
Erythrocyte = experiment: Hemolytic activity in rabbit erythrocytes incubated for 1 hr; assay type: toxicity, cell-based, Oryctolagus cuniculus
[3] = Selectivity ratio of HC5 for hemolytic activity in rabbit erythrocytes to MIC for antibacterial activity against methicillin-resistant Staphylococcus aureus ATCC 43300; assay type: toxicity, cell-based
Acinetobacter baumannii = experiment: Antibacterial activity against Acinetobacter baumannii ATCC 19606 assessed as inhibition of bacterial growth incubated for 16 to 18 hrs by broth microdilution method; assay type: functional; conditions: time 16-18 hrs
Pseudomonas aeruginosa = experiment: Antibacterial activity against Pseudomonas aeruginosa ATCC 27853 assessed as inhibition of bacterial growth incubated for 16 to 18 hrs by broth microdilution method; assay type: functional; conditions: time 16-18 hrs
Klebsiella pneumoniae = experiment: Antibacterial activity against Klebsiella pneumoniae CMCC(B) 46117 assessed as inhibition of bacterial growth incubated for 16 to 18 hrs by broth microdilution method; assay type: functional; conditions: time 16-18 hrs
Enterococcus faecalis = experiment: Antibacterial activity against Enterococcus faecalis ATCC 29212 assessed as inhibition of bacterial growth incubated for 16 to 18 hrs by broth microdilution method; assay type: functional; conditions: time 16-18 hrs
Staphylococcus aureus [4] = experiment: Inhibition of biofilm formation in methicillin-resistant Staphylococcus aureus ATCC 43300 incubated for 24 hrs under stationary conditions by crystal violet staining based analysis; assay type: functional, organism-based
Staphylococcus aureus [5] = experiment: Disruption of established biofilm in methicillin-resistant Staphylococcus aureus ATCC 43300 assessed as reduction of relative biofilm mass at 128XMIC incubated for 24 hrs by crystal violet staining based analysis; assay type: functional
Staphylococcus aureus [6] = experiment: Antibacterial activity against methicillin-resistant Staphylococcus aureus ATCC 43300 infected in BALB/c mouse assessed as reduction of histopathological changes of pulmonary tissue at 4 mg/kg, iv administered at 1, 6, 25 and 30 hrs post-infection and measured on day 7 post-infection by hematoxylin-eosin staining based analysis; assay type: functional, organism-based; conditions: time 7.0 day

**Q.** For CCCC[n+]1ccn(-c2ccc(C#Cc3ccc(-n4cc[n+](CCCC)c4)cc3)cc2)c1.[Br-].[Br-], which MIC (Staphylococcus aureus [1]) is on record?
**A.** 4 mg/L

**Q.** What about the MIC (Staphylococcus aureus [2]) of the same molecule?
**A.** 2 mg/L

**Q.** What about the MIC (Escherichia coli) of the same molecule?
**A.** 8 mg/L

**Q.** And the HC5 (Erythrocyte)?
**A.** 2000 µg/mL

**Q.** What about the selectivity ratio [3] of the same molecule?
**A.** 500

**Q.** Which results are given for CC[C@H](C)CCCCC(=O)N[C@@H](CCN)C(=O)N[C@H](C(=O)N[C@@H](CCN)C(=O)N[C@H]1CCNC(=O)[C@H]([C@@H](C)O)NC(=O)[C@H](CCN)NC(=O)[C@H](CCN)NC(=O)[C@H](CC(C)C)NC(=O)[C@@H](Cc2ccccc2)NC(=O)[C@H](CCN)NC1=O)[C@@H](C)O (X1-[Dab]T[Dab][Dab][Dab][dF]L[Dab][Dab]T; lactam 4-C)?
**A.** MIC (Escherichia coli): 1 mg/L (≈ 0.831 µM); MIC (Acinetobacter baumannii): 1 mg/L (≈ 0.831 µM); MIC (Pseudomonas aeruginosa): 1 mg/L (≈ 0.831 µM); MIC (Klebsiella pneumoniae): 1 mg/L (≈ 0.831 µM)

**Q.** Which results are given for CN[C@H](CC(C)C)C(=O)N[C@H]1C(=O)N[C@@H](CC(N)=O)C(=O)N[C@H]2C(=O)N[C@H]3C(=O)N[C@H](C(=O)N[C@H](C(=O)O)c4cc(O)cc(O)c4-c4cc3ccc4O)[C@H](O)c3ccc(c(Cl)c3)Oc3cc2cc(c3O[C@@H]2O[C@H](CO)[C@@H](O)[C@H](O)[C@H]2O[C@H]2C[C@](C)(N)[C@H](O)[C@H](C)O2)Oc2ccc(cc2Cl)[C@H]1O [VANCOMYCIN]?
**A.** MIC (Enterococcus faecalis): 1 mg/L (≈ 0.69 µM); inhibition (Staphylococcus aureus [4]): Active; inhibition (INH) (Staphylococcus aureus [5]): 37%; Activity (Staphylococcus aureus [6]): Active

**Q.** For C(#Cc1ccc(-n2cc[n+](Cc3ccccc3)c2)cc1)c1ccc(-n2cc[n+](Cc3ccccc3)c2)cc1.[Br-].[Br-], which MIC (Staphylococcus aureus [1]) is on record?
**A.** 1 mg/L

**Q.** What about the MIC (Staphylococcus aureus [2]) of the same molecule?
**A.** 0.5 mg/L

**Q.** And the MIC (Escherichia coli)?
**A.** 2 mg/L

**Q.** What about the HC5 (Erythrocyte) of the same molecule?
**A.** 200 µg/mL

**Q.** And the selectivity ratio [3]?
**A.** 200

**Q.** For CCCCCC[n+]1ccn(-c2ccc(/C=C/c3ccc(-n4cc[n+](CCCCCC)c4)cc3)cc2)c1.[Br-].[Br-], which MIC (Staphylococcus aureus [1]) is on record?
**A.** 1 mg/L

**Q.** What about the MIC (Staphylococcus aureus [2]) of the same molecule?
**A.** 1 mg/L

**Q.** And the MIC (Escherichia coli)?
**A.** 2 mg/L

**Q.** And the HC5 (Erythrocyte)?
**A.** 600 µg/mL

**Q.** And the selectivity ratio [3]?
**A.** 600

**Q.** Which results are given for CCCCCCCC[n+]1ccn(CCCCn2cc[n+](CCCCCCCC)c2)c1.[Br-].[Br-]?
**A.** MIC (Staphylococcus aureus [1]): 8 mg/L; MIC (Staphylococcus aureus [2]): 4 mg/L; MIC (Escherichia coli): 32 mg/L; HC5 (Erythrocyte): 400 µg/mL; selectivity ratio [3]: 50

**Q.** For CCCCCCCC[n+]1ccn(-c2ccc(C#Cc3ccc(-n4cc[n+](CCCCCCCC)c4)cc3)cc2)c1.[Br-].[Br-], which MIC (Staphylococcus aureus [1]) is on record?
**A.** 1 mg/L

**Q.** What about the MIC (Staphylococcus aureus [2]) of the same molecule?
**A.** 1 mg/L

**Q.** What about the MIC (Escherichia coli) of the same molecule?
**A.** 1 mg/L

**Q.** And the HC5 (Erythrocyte)?
**A.** 200 µg/mL

**Q.** And the selectivity ratio [3]?
**A.** 200
